# Where two headings read alike, the source gives them in different places.
# Legend:
# [1] = target: T1, delta opioid receptor (Rattus norvegicus, UniProt P33533); assay: Rat Brain Delta Opioid Receptor Binding Assay ([3H]DPDPE); settings: rat forebrain membranes, margin of error 10-20%, read-out: r Ki δ
# T1 construct: from tissue; host or cells: forebrain of male Wistar rats
# Protocol: (§1) Male, Wistar rats (150-250 g, VAF, Charles River, Kingston, N.Y.) are killed by cervical dislocation, and their brains removed and placed immediately in ice cold Tris HCl buffer (50 mM, pH 7.4). The forebrains are separated from the remainder of the brain by a coronal transection, beginning dorsally at the colliculi and passing ventrally through the midbrain-pontine junction. After dissection, the forebrains are homogenized in Tris buffer in a Teflon® glass homogenizer. The homogenate is diluted to a concentration of 1 g of forebrain tissue per 80 mL Tris and centrifuged at 39,000×g for 10 min. The pellet is resuspended in the same volume of Tris buffer containing 5 mM MgCl2 with several brief pulses from a Polytron homogenizer. This particulate preparation is used for the delta opioid binding assays. Following incubation with the delta selective peptide ligand ˜4 nM [^3H]DPDPE at 25° C. for 2.5 h in a 96-well plate with total volume of 1 mL, the plate contents are filtered through Wallac filtermat B sheets on a Tomtec 96-well harvester. The filters are rinsed three times with 2 mL of 10 mM HEPES (pH 7.4), and dried in a microwave oven 2 min twice. To each sample area 2×50 μL of Betaplate Scint scintillation fluid (LKB) is added and analyzed on a LKB (Wallac) 1205 BetaPlate liquid scintillation counter.
# (§2) The data are used to calculate either the % inhibition compared to control binding (when only a single concentration of test compound is evaluated) or a Ki value (when a range of concentrations is tested). % inhibition is calculated as: [(total dpm−test compound dpm)/(total dpm−nonspecific dpm)]*100. Kd and Ki values were calculated using GraphPad PRISM data analysis program.
# [2] = target: T2, mu opioid receptor (Rattus norvegicus, UniProt P33535); assay: Rat Brain Mu Opioid Receptor Binding Assay (and Version 2a, [3H]DAMGO); settings: rat forebrain membranes, margin of error 10-20%, read-out: r Ki μ
# T2 construct: from tissue; host or cells: forebrain of male Wistar rats
# T2 sequence (P33535 whole entry): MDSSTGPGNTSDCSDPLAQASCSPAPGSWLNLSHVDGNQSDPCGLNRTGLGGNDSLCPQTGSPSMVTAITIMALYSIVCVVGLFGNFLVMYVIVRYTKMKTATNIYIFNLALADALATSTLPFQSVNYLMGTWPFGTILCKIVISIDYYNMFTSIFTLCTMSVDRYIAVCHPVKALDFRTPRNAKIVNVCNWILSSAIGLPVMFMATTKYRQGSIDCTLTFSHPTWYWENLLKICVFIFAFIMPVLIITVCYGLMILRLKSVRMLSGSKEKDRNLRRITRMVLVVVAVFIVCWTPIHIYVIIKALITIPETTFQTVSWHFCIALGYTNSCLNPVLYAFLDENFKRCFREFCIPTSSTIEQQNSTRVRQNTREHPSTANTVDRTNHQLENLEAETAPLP
# Protocol: as §1, with “mu-opioid” for “delta opioid”, “Following incubation with the delta selective peptide ligand ˜4 nM [^3H]DPDPE at 25° C. for 2.5 h in a 96-well plate with total volume of 1 mL, the plate contents are filtered through Wallac filtermat B sheets on a Tomtec 96-well harvester.” left out, “(pH7.4),” for “(pH 7.4),”
# as §2, with “dpm-test” for “dpm−test”, “dpm-nonspecific” for “dpm−nonspecific”
# Male, Wistar rats (150-250 g, VAF, Charles River, Kingston, N.Y.) were killed by cervical dislocation, and their brains removed and placed immediately in ice-cold Tris HCl buffer (50 mM, pH 7.4). The forebrains were separated from the remainder of the brain by a coronal transection, beginning dorsally at the colliculi and passing ventrally through the midbrain-pontine junction. After dissection, the forebrains were homogenized in Tris buffer in a Teflon®-glass homogenizer. The homogenate was diluted to a concentration of 1 g of forebrain tissue per 80 mL Tris and centrifuged at 39,000×g for 10 min. The pellet was resuspended in the same volume of Tris buffer containing 5 mM MgCl2 with several brief pulses from a Polytron homogenizer. This particulate preparation was used for the mu opioid binding assay. Following incubation with 0.8 nM of the mu selective ligand [^3H]DAMGO at 25° C. for 2.5 h in a 96-well plate with total 1 mL, the plate contents were filtered through Wallac filtermat B sheets on a Tomtec 96-well harvester. The filters were rinsed three times with 2 mL of 10 mM HEPES (pH 7.4), and dried in a microwave oven. To each sample area, Betaplate Scint scintillation fluid (LKB) was added and the resulting radioactivity quantified on a LKB (Wallac) 1205 BetaPlate liquid scintillation counter. Kd and Ki values were calculated using the GraphPad PRISM data analysis program.
# [3] = target: T3, human mu opioid receptor (Homo sapiens, UniProt P35372); assay: Human Mu Opioid Receptor Binding Assay (CHO membranes, 3H-Damgo); settings: read-out: hKi μ
# T3 construct: purchased Perkin Elmer RBHOMM400UA; host or cells: Chinese Hamster Ovary cells (recombinant expression)
# T3 sequence (P35372 whole entry): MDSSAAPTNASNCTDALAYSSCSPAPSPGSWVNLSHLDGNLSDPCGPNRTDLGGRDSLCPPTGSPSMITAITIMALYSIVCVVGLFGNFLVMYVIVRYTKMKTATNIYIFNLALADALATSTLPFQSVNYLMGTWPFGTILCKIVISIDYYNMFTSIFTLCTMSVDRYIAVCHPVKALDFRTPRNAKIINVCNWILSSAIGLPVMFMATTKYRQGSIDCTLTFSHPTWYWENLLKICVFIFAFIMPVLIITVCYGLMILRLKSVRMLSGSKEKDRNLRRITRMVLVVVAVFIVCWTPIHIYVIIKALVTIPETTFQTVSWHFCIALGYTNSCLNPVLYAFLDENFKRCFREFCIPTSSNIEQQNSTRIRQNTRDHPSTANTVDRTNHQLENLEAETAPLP
# Summary of the method: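 Membranes from CHO cells expressing human mu opioid receptor, 300 μg/mL, in 50 mM Tris pH 7.5, 5 mM MgCl2. Incubated with compound and ³H-Damgo (3.6 nM before mixing) for 2 h at room temperature, filtered, counted by scintillation. Nonspecific binding with 1 μM unlabelled Damgo.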
# [4] = target: T4, mu opioid receptor (CHO-hMOR cell membranes) (Homo sapiens, UniProt P35372); assay: Mu Opioid Receptor Functional Assay: [35S]GTPγS Binding in CHO-hMOR Cell Membranes, Versions 1 and 2; format: biochemical; settings: for MOR GTP binding assay_v1 (% I): version 1, % inhibition of agonist-stimulated GTPγS binding; for MOR GTP assay_v1 % of Basal: version 1, basal binding = 100%
# T4 construct: purchased Receptor Biology, Inc. (Baltimore, Md.); host or cells: CHO cells (recombinant expression)
# T4 sequence (P35372 whole entry): as above
# Protocol: CHO-hMOR cell membranes were purchased from Receptor Biology, Inc. (Baltimore, Md.). About 10 mg/ml of membrane protein was suspended in 10 mM TRIS-HCl pH 7.2, 2 mM EDTA, 10% sucrose, and the suspension kept on ice. One ml of membranes was added to 15 ml cold binding assay buffer containing 50 mM HEPES, pH 7.6, 5 mM MgCl2, 100 mM NaCl, 1 mM DTT and 1 mM EDTA. The membrane suspension was homogenized with a Polytron and centrifuged at 3,000 rpm for 10 min. The supernatant was then centrifuged at 18,000 rpm for 20 min. The pellet was resuspended in 10 ml assay buffer with a Polytron.
# The membranes were preincubated with wheat germ agglutinin coated SPA beads (Amersham) at 25° C. for 45 min in the assay buffer. The SPA bead (5 mg/ml) coupled membranes (10 μg/ml) were then incubated with 0.5 nM [^35S]GTPγS in the assay buffer. […] A range of concentrations of receptor agonists was used to stimulate [^35S]GTPγS binding. Both basal and non-specific binding was tested in the absence of agonist; non-specific binding determination included 10 μM unlabeled GTPγS.
# Compounds were tested for function as antagonists by evaluating their potential to inhibit agonist-stimulated GTPγS binding. Radioactivity was quantified on a Packard TopCount. The following parameters were calculated:
# [formula] % Inhibition=(% stimulation by 1 μM SNC80−% stimulation by 1 μM SNC80 in presence of test compound)×100/(% Stimulation by 1 μM SNC80−100)
# EC50 values were calculated using GraphPad Prism.
# [5] = target: T5, human delta subtype 2 opioid receptor (Homo sapiens, UniProt P41143); assay: Human Delta Opioid Receptor Binding Assay (CHO membranes, 3H-Naltrindole); settings: read-out: hKi δ
# T5 construct: purchased Perkin Elmer RBHODM400UA; host or cells: Chinese Hamster Ovary cells (recombinant expression)
# T5 sequence (P41143 whole entry): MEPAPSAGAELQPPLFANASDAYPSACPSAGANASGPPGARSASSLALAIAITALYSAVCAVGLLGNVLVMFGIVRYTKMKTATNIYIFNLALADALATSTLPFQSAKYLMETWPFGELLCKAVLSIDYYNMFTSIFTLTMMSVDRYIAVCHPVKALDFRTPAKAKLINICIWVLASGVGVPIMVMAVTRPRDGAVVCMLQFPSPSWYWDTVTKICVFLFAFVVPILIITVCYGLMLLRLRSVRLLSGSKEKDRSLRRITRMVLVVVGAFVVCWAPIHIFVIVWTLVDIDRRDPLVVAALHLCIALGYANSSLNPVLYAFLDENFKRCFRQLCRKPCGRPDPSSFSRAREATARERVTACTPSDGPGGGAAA
# Summary of the method: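 Filtration binding on CHO-cell membranes expressing the human receptor, in 50 mM Tris pH 7.5 with 5 mM MgCl2, 30 min at room temperature; 3H-naltrindole diluted to 6 nM before mixing 1:1 with compound. Nonspecific binding defined with 1 μM unlabelled naltrindole; inhibition relative to no-inhibitor wells.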
# [6] = test system: novel environment-stressed mice; assay: In Vivo Assay-Stress-Induced Fecal Output (Fecal Output for 1 hr); set-up: species or system mouse; settings: 30 mg/kg oral, 1 hr; for response vs control in vivo at 30 mg/kg: Mus musculus, po, 1 h
# Description: This assay evaluates the fecal output in novel environment-stressed mice to that of acclimated controls.
# Methods: Adult, male, Crl:CD-1(ICR) mice, weighing ˜30-35 g were used in these studies, with a minimum of 10 mice per dose group. One group of mice was assigned as acclimated, or “non-stressed” controls. These control mice were transported from colony housing, where they were housed 3/cage in polycarbonate cages with access to food and water ad lib. to the procedure room. The mice were removed from their home cages and individually housed in 20 cm wide×20 cm deep×15 cm tall cages, equipped with a wire mesh bottom where they remained for a 16-18 hr period of acclimation to their novel environment. Mice were allowed access to food and water ad lib. during acclimation. The other groups of mice were assigned as non-acclimated, or “stressed” treatment groups. Each mouse in each group was weighed and vehicle, or test compound, was intragastrically administered by oral intubation in 0.5% methylcellulose. Mice were allowed access to water only ad lib. during the test period. After compound administrations, acclimated (control) as well as non-acclimated (stressed) mice were individually housed in a 20 cm wide×20 cm deep×15 cm tall cage, with a wire mesh bottom. An absorbant cardboard is placed beneath the cages. The number of fecal pellets excreted by each mouse was determined at hourly intervals following placement of the mice in the individual cages. Raw Data=# of fecal pellets/mouse/hr. […]
# T1 sequence (P33533 whole entry): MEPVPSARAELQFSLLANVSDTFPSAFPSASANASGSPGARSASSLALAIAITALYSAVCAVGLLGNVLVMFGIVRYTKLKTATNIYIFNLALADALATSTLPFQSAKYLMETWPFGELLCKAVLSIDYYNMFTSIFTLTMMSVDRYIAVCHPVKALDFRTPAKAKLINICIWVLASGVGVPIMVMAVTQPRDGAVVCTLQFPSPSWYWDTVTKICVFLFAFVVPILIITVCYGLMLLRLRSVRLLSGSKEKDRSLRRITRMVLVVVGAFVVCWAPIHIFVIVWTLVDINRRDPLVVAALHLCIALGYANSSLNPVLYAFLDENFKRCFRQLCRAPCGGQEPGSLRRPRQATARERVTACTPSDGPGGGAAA
smiles,measurement,setting,value
C[C@H](NC(=O)[C@@H](N)Cc1ccc(O)cc1)c1nc(-c2ccccc2)c[nH]1 [Cpd 213],Ki,[1],5660 nM
same,Ki,[2],1260 nM
same,Ki,[3],> 1000 nM
CCNC(=O)c1cc(C)c(C[C@H](N)C(=O)N(C)[C@H](C)c2nc(-c3ccccc3)c[nH]2)c(C)c1 [Cpd 182],Ki,[1],1860 nM
same,Ki,[2],7 nM
same,MOR GTP binding assay_v1 (% I),[4],6.00%
Cc1cc(O)cc(C)c1C[C@H](N)C(=O)N[C@H](C)c1nc(-c2ccccc2)c[nH]1 [Cpd 208],Ki,[1],33 nM
same,Ki,[2],1.3 nM
same,Ki,[3],1.2 nM
same,MOR GTP binding assay_v1 (% I),[4],1.00%
same,MOR GTP assay_v1 % of Basal,[4],475.00%
Cc1cc(O)cc(C)c1C[C@H](N)C(=O)N[C@@H](Cc1cccc(C#N)c1)c1nc(-c2ccccc2)c[nH]1 [Cpd 173],Ki,[1],5070 nM
same,Ki,[2],45.7 nM
same,MOR GTP binding assay_v1 (% I),[4],85.00%
same,MOR GTP assay_v1 % of Basal,[4],147.00%
C[C@@H](c1nc(-c2ccccc2)c[nH]1)N(C)C(=O)[C@@H](N)Cc1ccc(O)cc1 [Cpd 211],Ki,[1],180 nM
same,Ki,[2],5.9 nM
same,MOR GTP binding assay_v1 (% I),[4],10.00%
same,MOR GTP assay_v1 % of Basal,[4],371.00%
Cc1cc(O)cc(C)c1C[C@H](N)C(=O)N[C@@H](COCc1ccccc1)c1nc(-c2ccccc2)c[nH]1 [Cpd 175],Ki,[1],166 nM
same,Ki,[2],3.6 nM
same,MOR GTP binding assay_v1 (% I),[4],53.00%
same,MOR GTP assay_v1 % of Basal,[4],471.00%
CN[C@@H](Cc1ccc(O)cc1)C(=O)N(Cc1ccc(OC)c(C(=O)O)c1)[C@@H](C)c1nc(-c2ccccc2)c[nH]1 [Cpd 262],Ki,[1],17.5 nM
same,Ki,[2],1.1 nM
same,Ki,[3],3.24 nM
CN(Cc1nc(-c2ccccc2)c[nH]1)C(=O)[C@@H](N)Cc1ccc(O)cc1 [Cpd 198],Ki,[1],5180 nM
same,Ki,[2],152 nM
same,Ki,[3],140 nM
same,Ki,[5],> 10000 nM
C[C@H](c1nc(-c2ccccc2)c[nH]1)N(C)C(=O)[C@@H](N)Cc1ccc(O)cc1 [Cpd 210],Ki,[1],1860 nM
same,Ki,[2],420 nM
same,Ki,[3],0.29 nM
same,MOR GTP binding assay_v1 (% I),[4],10.00%
same,MOR GTP assay_v1 % of Basal,[4],414.00%
CCNC(=O)c1cc(C)c(C[C@H](N)C(=O)N(C)[C@@H](C)c2nc(-c3ccccc3)c[nH]2)c(C)c1 [Cpd 181],Ki,[1],341 nM
same,Ki,[2],1.3 nM
same,MOR GTP binding assay_v1 (% I),[4],1.00%
N[C@@H](Cc1ccc(O)cc1)C(=O)N(Cc1nc(-c2ccccc2)c[nH]1)CC1CC1 [Cpd 193],Ki,[1],182 nM
same,Ki,[2],21.1 nM
same,Ki,[5],> 10000 nM
same,MOR GTP binding assay_v1 (% I),[4],54.00%
same,MOR GTP assay_v1 % of Basal,[4],182.00%
Cc1cc(C(N)=O)cc(C)c1C[C@H](N)C(=O)N(Cc1nc(-c2ccccc2)c[nH]1)C(C)C [Cpd 178],Ki,[1],104 nM
same,Ki,[2],0.6 nM
same,MOR GTP binding assay_v1 (% I),[4],10.00%
same,Fecal Output (# pellets) cpd,[6]; novel environment-stressed mice,5.5 pellets
same,response vs control in vivo at 30 mg/kg,"[6]; relative to acclimated control, read-out: Fecal Output cpd % control",172%
same,response vs control in vivo at 30 mg/kg,"[6]; relative to novel environment stress (NES) vehicle group, read-out: Fecal Output cpd % NES",62.5%
C[C@@H](NC(=O)[C@@H](N)Cc1ccc(O)cc1)c1nc(-c2ccccc2)c[nH]1 [Cpd 212],Ki,[1],1280 nM
same,Ki,[2],103 nM
same,Ki,[3],55 nM
Cc1cc(O)cc(C)c1C[C@H](N)C(=O)N[C@@H](Cc1ccccc1)c1nc(-c2ccccc2)c[nH]1 [Cpd 177],Ki,[1],255 nM
same,Ki,[2],13.4 nM
same,MOR GTP binding assay_v1 (% I),[4],23.00%
same,MOR GTP assay_v1 % of Basal,[4],625.00%
Cc1cc(O)cc(C)c1C[C@H](N)C(=O)N[C@@H](C)c1nc(-c2ccccc2)c[nH]1 [Cpd 209],Ki,[1],708 nM
same,Ki,[2],17 nM
same,Ki,[3],23 nM
same,MOR GTP binding assay_v1 (% I),[4],10.00%
same,MOR GTP assay_v1 % of Basal,[4],295.00%
N[C@@H](Cc1ccc(O)cc1)C(=O)N(Cc1nc(-c2ccccc2)c[nH]1)C1CCCCC1 [Cpd 191],Ki,[1],727 nM
same,Ki,[2],189 nM
same,Ki,[5],> 10000 nM

# From patent US10213415B2, “Compounds as opioid receptor modulators” (JANSSEN PHARMACEUTICA NV, priority 2004, dated 2019)
